Measured values reported in ChEMBL document CHEMBL4765295, “Synthesis, pharmacological profile and 2D-QSAR studies of curcumin-amino acid conjugates as potential drug candidates” (Eur J Med Chem, 2020).
“And” between values parts separate entries of the source, which are not always exact repeats. Equal values may be shown once.

system: Candida albicans; assay: Antifungal activity against Candida albicans incubated for 18 to 24 hrs by CLSI method; assay type: functional; conditions: time 18-24 hrs

| MIC | Structure (SMILES) |
| --- | --- |
| 2 µg/mL and 2.42 µM | COc1cc(/C=C/C(=O)/C=C(O)/C=C/c2ccc(OC(=O)[C@H](CCC(N)=O)NC(=O)OC(C)(C)C)c(OC)c2)ccc1OC(=O)[C@H](CCC(N)=O)NC(=O)OC(C)(C)C |

system: Streptococcus pyogenes; assay: Antibacterial activity against Streptococcus pyogenes ATCC 19615 incubated for 18 hrs by agar dilution method; assay type: functional; conditions: not given

| MIC | Structure (SMILES) |
| --- | --- |
| 0.25 µg/mL and 0.303 µM | COc1cc(/C=C/C(=O)/C=C(O)/C=C/c2ccc(OC(=O)[C@H](CCC(N)=O)NC(=O)OC(C)(C)C)c(OC)c2)ccc1OC(=O)[C@H](CCC(N)=O)NC(=O)OC(C)(C)C |

system: Rattus norvegicus; assay: Anti-inflammatory activity in Wistar rat assessed as inhibition of carrageenan-induced paw edema at 10 mg/kg, ip pretreated for 1 hr followed by carrageenan challenge and measured after 1 hr relative to control (reference value: 0.00 +/-0.02 %); assay type: functional; conditions: time 2 hrs

| Structure (SMILES) | inhibition in vivo at 10 mg/kg |
| --- | --- |
| COc1cc(/C=C/C(=O)/C=C(O)/C=C/c2ccc(OC(=O)[C@H](CCC(N)=O)NC(=O)OC(C)(C)C)c(OC)c2)ccc1OC(=O)[C@H](CCC(N)=O)NC(=O)OC(C)(C)C | 10% |

system: Rattus norvegicus; assay: Anti-inflammatory activity in Wistar rat assessed as inhibition of carrageenan-induced paw edema at 10 mg/kg, ip pretreated for 1 hr followed by carrageenan challenge and measured after 24 hr relative to control (reference value: 0.00 +/-0.3 %); assay type: functional; conditions: time 25 hrs

| Structure (SMILES) | inhibition in vivo at 10 mg/kg |
| --- | --- |
| COc1cc(/C=C/C(=O)/C=C(O)/C=C/c2ccc(OC(=O)[C@H](CCC(N)=O)NC(=O)OC(C)(C)C)c(OC)c2)ccc1OC(=O)[C@H](CCC(N)=O)NC(=O)OC(C)(C)C | 57% |

system: Rattus norvegicus; assay: Antiinflammatory activity in Wistar rat model of carrageenan-induced paw edema assessed as reduction in thickness of paw edema at 10 mg/kg, ip pretreated for 1 hr followed by carrageenan challenge and measured after 3 hrs (reference value: 1.79 +/-0.07 mm); assay type: functional; conditions: time 4 hrs

| Structure (SMILES) | Activity |
| --- | --- |
| COc1cc(/C=C/C(=O)/C=C(O)/C=C/c2ccc(OC(=O)[C@H](CCC(N)=O)NC(=O)OC(C)(C)C)c(OC)c2)ccc1OC(=O)[C@H](CCC(N)=O)NC(=O)OC(C)(C)C | 1.22 mm |

system: Splenocyte; assay: Immunomodulatory activity in Swiss albino mouse splenocytes assessed as cell viability at 10 uM by measuring stimulation index incubated for 72 hrs in presence of mitogenic stimulus phytohaemagglutinin by MTT assay (reference value: 1.00 +/- 0.24); assay type: functional; conditions: not given

| Structure (SMILES) | Activity_index |
| --- | --- |
| COc1cc(/C=C/C(=O)/C=C(O)/C=C/c2ccc(OC(=O)[C@H](CCC(N)=O)NC(=O)OC(C)(C)C)c(OC)c2)ccc1OC(=O)[C@H](CCC(N)=O)NC(=O)OC(C)(C)C | 2.14 |

system: Peritoneal macrophage; assay: Antiinflammatory activity in […] mouse Peritoneal macrophages assessed as reduction in LPS-induced NO production by measuring reduction in stimulation index at 10 uM preincubated for 1 hr followed by LPS stimulation measured after 24 hrs by Griess method (reference value: 27.31 +/- 2.56 uM); assay type: functional; conditions: time 25 hrs

| Structure (SMILES) | Activity |
| --- | --- |
| COc1cc(/C=C/C(=O)/C=C(O)/C=C/c2ccc(OC(=O)[C@H](CCC(N)=O)NC(=O)OC(C)(C)C)c(OC)c2)ccc1OC(=O)[C@H](CCC(N)=O)NC(=O)OC(C)(C)C | 21.22 µM |

system: Rattus norvegicus; assay: Anti-inflammatory activity in Wistar rat assessed as inhibition of carrageenan-induced paw edema at 10 mg/kg, ip pretreated for 1 hr followed by carrageenan challenge and measured after 4 hr relative to indomethacin; assay type: functional; conditions: time 5 hrs

| Structure (SMILES) | inhibition in vivo at 10 mg/kg |
| --- | --- |
| COc1cc(/C=C/C(=O)/C=C(O)/C=C/c2ccc(OC(=O)[C@H](CCC(N)=O)NC(=O)OC(C)(C)C)c(OC)c2)ccc1OC(=O)[C@H](CCC(N)=O)NC(=O)OC(C)(C)C | 47% |

system: Rattus norvegicus; assay: Anti-inflammatory activity in Wistar rat assessed as inhibition of carrageenan-induced paw edema at 10 mg/kg, ip pretreated for 1 hr followed by carrageenan challenge and measured after 2 hr relative to control (reference value: 0.00 +/-0.03 %); assay type: functional; conditions: time 3 hrs

| Structure (SMILES) | inhibition in vivo at 10 mg/kg |
| --- | --- |
| COc1cc(/C=C/C(=O)/C=C(O)/C=C/c2ccc(OC(=O)[C@H](CCC(N)=O)NC(=O)OC(C)(C)C)c(OC)c2)ccc1OC(=O)[C@H](CCC(N)=O)NC(=O)OC(C)(C)C | 16% |

system: Rattus norvegicus; assay: Anti-inflammatory activity in Wistar rat assessed as inhibition of carrageenan-induced paw edema at 10 mg/kg, ip pretreated for 1 hr followed by carrageenan challenge and measured after 3 hr relative to control (reference value: 0.00 +/-0.1 %); assay type: functional; conditions: time 4 hrs

| Structure (SMILES) | inhibition in vivo at 10 mg/kg |
| --- | --- |
| COc1cc(/C=C/C(=O)/C=C(O)/C=C/c2ccc(OC(=O)[C@H](CCC(N)=O)NC(=O)OC(C)(C)C)c(OC)c2)ccc1OC(=O)[C@H](CCC(N)=O)NC(=O)OC(C)(C)C | 32% |

system: Rattus norvegicus; assay: Antiinflammatory activity in Wistar rat model of carrageenan-induced paw edema assessed as reduction in thickness of paw edema at 10 mg/kg, ip pretreated for 1 hr followed by carrageenan challenge and measured after 4 hrs (reference value: 1.40 +/-0.10 mm); assay type: functional; conditions: time 5 hrs

| Structure (SMILES) | Activity |
| --- | --- |
| COc1cc(/C=C/C(=O)/C=C(O)/C=C/c2ccc(OC(=O)[C@H](CCC(N)=O)NC(=O)OC(C)(C)C)c(OC)c2)ccc1OC(=O)[C@H](CCC(N)=O)NC(=O)OC(C)(C)C | 0.83 mm |

system: Rattus norvegicus; assay: Antiinflammatory activity in Wistar rat model of carrageenan-induced paw edema assessed as reduction in thickness of paw edema at 10 mg/kg, ip pretreated for 1 hr followed by carrageenan challenge and measured after 1 hr (reference value: 2.41 +/-0.05 mm); assay type: functional; conditions: time 1 hr after carrageenan

| Structure (SMILES) | Activity |
| --- | --- |
| COc1cc(/C=C/C(=O)/C=C(O)/C=C/c2ccc(OC(=O)[C@H](CCC(N)=O)NC(=O)OC(C)(C)C)c(OC)c2)ccc1OC(=O)[C@H](CCC(N)=O)NC(=O)OC(C)(C)C | 2.16 mm |

system: Peritoneal macrophage; assay: Antiinflammatory activity in […] mouse Peritoneal macrophages assessed as inhibition of LPS-induced NO production at 10 uM preincubated for 1 hr followed by LPS stimulation measured after 24 hrs by Griess method relative to control (reference value: 0.0 %); assay type: functional; design: scale not given: the % may be the effect or the level left; conditions: time 25 hrs

| Structure (SMILES) | Activity |
| --- | --- |
| COc1cc(/C=C/C(=O)/C=C(O)/C=C/c2ccc(OC(=O)[C@H](CCC(N)=O)NC(=O)OC(C)(C)C)c(OC)c2)ccc1OC(=O)[C@H](CCC(N)=O)NC(=O)OC(C)(C)C | 22.29% |

system: Pseudomonas aeruginosa; assay: Antibacterial activity against Pseudomonas aeruginosa ATCC 27853 incubated for 18 hrs by agar dilution assay; assay type: functional; conditions: not given

| MIC | Structure (SMILES) |
| --- | --- |
| 1 µg/mL and 1.21 µM | COc1cc(/C=C/C(=O)/C=C(O)/C=C/c2ccc(OC(=O)[C@H](CCC(N)=O)NC(=O)OC(C)(C)C)c(OC)c2)ccc1OC(=O)[C@H](CCC(N)=O)NC(=O)OC(C)(C)C |

system: Rattus norvegicus; assay: Anti-inflammatory activity in Wistar rat assessed as inhibition of carrageenan-induced paw edema at 10 mg/kg, ip pretreated for 1 hr followed by carrageenan challenge and measured after 4 hr relative to control (reference value: 0.00 +/-0.4 %); assay type: functional; conditions: time 5 hrs

| Structure (SMILES) | inhibition in vivo at 10 mg/kg |
| --- | --- |
| COc1cc(/C=C/C(=O)/C=C(O)/C=C/c2ccc(OC(=O)[C@H](CCC(N)=O)NC(=O)OC(C)(C)C)c(OC)c2)ccc1OC(=O)[C@H](CCC(N)=O)NC(=O)OC(C)(C)C | 41% |

system: Splenocyte; assay: Immunomodulatory activity in Swiss albino mouse splenocytes assessed as cell viability at 10 uM by measuring inhibition of stimulation index incubated for 72 hrs in presence of mitogenic stimulus phytohaemagglutinin by MTT assay relative to indomethacin; assay type: functional; conditions: read-out: Activity

| Structure (SMILES) | viability at 10 µM |
| --- | --- |
| COc1cc(/C=C/C(=O)/C=C(O)/C=C/c2ccc(OC(=O)[C@H](CCC(N)=O)NC(=O)OC(C)(C)C)c(OC)c2)ccc1OC(=O)[C@H](CCC(N)=O)NC(=O)OC(C)(C)C | 56.6% |

system: Salmonella typhimurium; assay: Antibacterial activity against Salmonella typhimurium ATCC 19430 incubated for 18 hrs by agar dilution assay; assay type: functional, Salmonella enterica subsp. enterica serovar Typhimurium; conditions: Salmonella enterica

| MIC | Structure (SMILES) |
| --- | --- |
| 0.125 µg/mL and 0.152 µM | COc1cc(/C=C/C(=O)/C=C(O)/C=C/c2ccc(OC(=O)[C@H](CCC(N)=O)NC(=O)OC(C)(C)C)c(OC)c2)ccc1OC(=O)[C@H](CCC(N)=O)NC(=O)OC(C)(C)C |

system: Rattus norvegicus; assay: Antiinflammatory activity in Wistar rat model of carrageenan-induced paw edema assessed as reduction in thickness of paw edema at 10 mg/kg, ip pretreated for 1 hr followed by carrageenan challenge and measured after 2 hrs (reference value: 2.06 +/-0.09 mm); assay type: functional; conditions: time 3 hrs

| Structure (SMILES) | Activity |
| --- | --- |
| COc1cc(/C=C/C(=O)/C=C(O)/C=C/c2ccc(OC(=O)[C@H](CCC(N)=O)NC(=O)OC(C)(C)C)c(OC)c2)ccc1OC(=O)[C@H](CCC(N)=O)NC(=O)OC(C)(C)C | 1.73 mm |

system: Rattus norvegicus; assay: Antiinflammatory activity in Wistar rat model of carrageenan-induced paw edema assessed as reduction in thickness of paw edema at 10 mg/kg, ip pretreated for 1 hr followed by carrageenan challenge and measured after 24 hrs (reference value: 0.83 +/-0.08 mm); assay type: functional; conditions: time 25 hrs

| Structure (SMILES) | Activity |
| --- | --- |
| COc1cc(/C=C/C(=O)/C=C(O)/C=C/c2ccc(OC(=O)[C@H](CCC(N)=O)NC(=O)OC(C)(C)C)c(OC)c2)ccc1OC(=O)[C@H](CCC(N)=O)NC(=O)OC(C)(C)C | 0.36 mm |

system: Staphylococcus aureus; assay: Antibacterial activity against Staphylococcus aureus ATCC 25923 incubated for 18 hrs by agar dilution method; assay type: functional; conditions: not given

| MIC | Structure (SMILES) |
| --- | --- |
| 0.125 µg/mL and 0.152 µM | COc1cc(/C=C/C(=O)/C=C(O)/C=C/c2ccc(OC(=O)[C@H](CCC(N)=O)NC(=O)OC(C)(C)C)c(OC)c2)ccc1OC(=O)[C@H](CCC(N)=O)NC(=O)OC(C)(C)C |
